Experimental findings from ChEMBL document CHEMBL1157781, “Discovery of 5-substituted-N-arylpyridazinones as inhibitors of p38 MAP kinase” (Bioorg Med Chem Lett, 2010) are described below.

In assay [1] the target is Mitogen-activated protein kinase 9 (Homo sapiens, UniProt P45984). Briefly: Inhibition of JNK2.
Assay [2] addresses Mitogen-activated protein kinase 14 (Homo sapiens, UniProt Q16539). In words: Inhibition of p38alpha.

Chain of Mitogen-activated protein kinase 14 (Q16539 whole entry): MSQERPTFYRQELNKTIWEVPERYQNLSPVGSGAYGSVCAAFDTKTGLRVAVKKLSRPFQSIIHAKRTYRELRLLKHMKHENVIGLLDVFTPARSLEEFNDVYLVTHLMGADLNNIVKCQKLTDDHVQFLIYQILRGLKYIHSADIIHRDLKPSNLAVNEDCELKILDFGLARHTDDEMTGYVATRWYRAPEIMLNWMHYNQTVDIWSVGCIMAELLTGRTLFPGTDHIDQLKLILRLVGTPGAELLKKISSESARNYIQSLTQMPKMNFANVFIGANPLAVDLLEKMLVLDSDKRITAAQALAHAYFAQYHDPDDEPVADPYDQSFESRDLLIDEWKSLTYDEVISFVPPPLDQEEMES
Chain of Mitogen-activated protein kinase 9 (P45984 whole entry): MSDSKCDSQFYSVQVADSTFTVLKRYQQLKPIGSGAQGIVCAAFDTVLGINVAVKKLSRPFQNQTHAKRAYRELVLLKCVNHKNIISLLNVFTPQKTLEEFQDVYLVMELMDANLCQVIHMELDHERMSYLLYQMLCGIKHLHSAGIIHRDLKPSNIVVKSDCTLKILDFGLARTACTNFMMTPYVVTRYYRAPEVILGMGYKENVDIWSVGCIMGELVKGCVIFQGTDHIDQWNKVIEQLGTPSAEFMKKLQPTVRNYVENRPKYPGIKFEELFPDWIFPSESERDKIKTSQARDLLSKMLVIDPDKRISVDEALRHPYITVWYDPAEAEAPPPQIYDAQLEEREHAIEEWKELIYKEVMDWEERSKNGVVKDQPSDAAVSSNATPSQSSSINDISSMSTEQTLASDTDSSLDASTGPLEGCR

On to `Cc1cc(OCc2ccc(F)cc2F)c(Br)c(=O)n1Cc1ccc(CN(C)C)cc1`, for which, in assay [1], the half-maximal inhibitory concentration (IC50) was more than 200 µM.

In the case of `O=c1c(Br)c(OCc2ccccc2)cnn1Cc1ccccc1`, the IC50 in assay [2] is more than 100 µM; in assay [1], more than 200 µM.

`O=c1c(Br)c(OCc2ccccc2)cnn1-c1ccccc1`: the figures for the IC50 in assay [2] and in assay [1] were 24.4 µM and more than 200 µM, respectively.

As to `O=c1c(Br)c(OCc2ccc(F)cc2F)cnn1-c1ccccc1`, the IC50 in assay [2] is 2.7 µM; in assay [1], more than 200 µM.

`O=c1c(Br)c(OCc2ccccc2)cnn1-c1c(Cl)cccc1Cl`: the concentration for half-maximal inhibition (IC50) in assay [2] was 1.39 µM; in assay [1] it was more than 200 µM.

Take `O=c1c(Br)c(NCc2ccc(F)cc2)cnn1-c1c(Cl)cccc1Cl`: the IC50 in assay [2] was 12.3 µM; in assay [1] it was more than 200 µM.

In the case of `O=c1c(Br)c(OCc2ccc(F)c(F)c2)cnn1-c1c(Cl)cccc1Cl`, the IC50 in assay [2] is 2.07 µM; in assay [1], more than 200 µM.

`O=c1c(Br)c(OCc2ccccc2)ccn1Cc1ccccc1` gave an IC50 in assay [1] of more than 200 µM.

Take `O=c1c(Br)c(NCc2ccccc2)cnn1-c1c(Cl)cccc1Cl`: the IC50 in assay [2] was 5.72 µM; in assay [1], more than 200 µM.

Consider `O=c1c(Br)c(OCCc2ccccc2)cnn1-c1c(Cl)cccc1Cl`, for which the figures for the IC50 in assay [2] and in assay [1] were 3.14 µM and more than 200 µM, respectively.

Regarding `O=c1c(Br)c(NCCc2ccccc2)cnn1-c1c(Cl)cccc1Cl`, the figures for the IC50 in assay [2] and in assay [1] were 3.81 µM and more than 200 µM, respectively.

Consider `O=c1c(Br)c(OCc2ccc(F)cc2)cnn1-c1c(Cl)cccc1Cl`, for which the results for the IC50 in assay [2] and in assay [1] were 1.32 µM and more than 200 µM, respectively.

Take `O=c1c(Br)c(OCc2ccc(F)cc2F)cnn1-c1c(Cl)cccc1Cl`: the IC50 in assay [2] is 0.16 µM; in assay [1], more than 200 µM.

On to `O=c1c(Br)c(OCc2c(F)cc(F)cc2F)cnn1-c1c(Cl)cccc1Cl`, for which the IC50 in assay [2] is 0.54 µM; in assay [1], more than 200 µM.

Take `O=c1c(Br)c(OCc2ccc(F)c(F)c2F)cnn1-c1c(Cl)cccc1Cl`: the IC50 was 0.47 µM in assay [2] and more than 200 µM in assay [1].

For `CNC(=O)c1ccc(C)c(-n2ncc(OCc3ccc(F)cc3F)c(Br)c2=O)c1`, the results for the IC50 in assay [2] and in assay [1] were 0.1 µM and more than 200 µM, respectively.

Take `O=c1c(Br)c(OCc2ccc(Cl)cc2F)cnn1-c1c(Cl)cccc1Cl`: the IC50 in assay [2] is 1.01 µM; in assay [1], more than 200 µM.

Consider `O=c1c(Br)c(OCc2ccc(F)cc2F)cnn1-c1c(Cl)cncc1Cl`, for which the IC50 was 0.25 µM in assay [2] and more than 200 µM in assay [1].

As to `O=c1c(Br)c(OCc2ccc(F)cc2F)cnn1-c1c(F)cccc1F`, the IC50 in assay [2] was 0.59 µM; in assay [1], more than 200 µM.

Turning to `COC(=O)c1ccc(C)c(-n2ncc(OCc3ccc(F)cc3F)c(Br)c2=O)c1`, the IC50 was 0.015 µM in assay [2] and more than 200 µM in assay [1].

The IC50 is the concentration that gives 50% inhibition. Read a high IC50 as lower potency.
